The values below come from patent US20210386752A1, “Uses of Electron Transport Chain Complex I or Complex II Inhibitors in Treating Cancer, Combination Therapies, and Diagnostic Methods Related Thereto” (Emory University, priority 2020, published 2021).

One data set concerns MM cell lines. The data set is described as follows: Spare respiratory capacity (Seahorse XFe96 stress assay). The format is cell-based. Conditions: TTFA treated KMS11 cells. How it is done: Spare capacity in venetoclax-sensitive and venetoclax -resistant cells was determined by subtracting basal OCR from maximal OCR.
The target in a further data set is T1, citrate synthase (Homo sapiens, UniProt O75390).
T1 construct: Citrate synthase activity assay was measured in 0.3×10^6 cells harvested per sample and washed with PBS; endogenous in cells; host or cells: KMS11 multiple myeloma cells
T1 sequence (O75390 28-466): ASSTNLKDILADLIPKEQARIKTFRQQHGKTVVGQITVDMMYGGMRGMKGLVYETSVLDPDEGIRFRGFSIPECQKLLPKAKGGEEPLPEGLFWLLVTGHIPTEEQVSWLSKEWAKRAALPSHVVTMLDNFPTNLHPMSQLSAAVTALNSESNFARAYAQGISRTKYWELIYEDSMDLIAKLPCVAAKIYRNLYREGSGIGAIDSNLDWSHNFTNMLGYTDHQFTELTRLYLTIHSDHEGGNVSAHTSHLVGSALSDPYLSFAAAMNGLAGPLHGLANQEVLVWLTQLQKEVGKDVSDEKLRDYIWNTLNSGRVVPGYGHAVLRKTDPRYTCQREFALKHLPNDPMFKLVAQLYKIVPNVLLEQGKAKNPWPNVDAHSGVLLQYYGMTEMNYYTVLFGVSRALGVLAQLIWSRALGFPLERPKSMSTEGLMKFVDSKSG
The experiment in a line: Citrate synthase (CS) activity assay. Conditions: TTFA-treated KMS11 cells. The data set is classed as biochemical.

In the next data set the test system is BIM binding to BCL-2. The data set is described as follows: Coimmunoprecipitation of BCL-2 and bound BIM. The data set is classed as cell-based. Conditions: TTFA-treated KMS11 cells. Here is the method: The regulation of ATF4, BIM and NOXA in MM cells that were not sensitized by TTFA treatment were investigated. Whole-cell lysates were evaluated for total protein expression. Coimmunoprecipitations was performed to examine binding of BIM with antiapoptotic BCL-2 in KMS11 and the TTFA insensitive-t(11;14) KMS21BM cells. Induction of BIM and NOXA were observed upon TTFA treatment (FIG. 5J) only in KMS11 not in the TTFA insensitive-t(11;14) KMS21BM cells.

Data set [1] relates to venetoclax-resistant MM lines. The experiment in a line: Venetoclax sensitization of resistant MM lines by ETC inhibitor cotreatment, viability by AnnexinV/DAPI staining. The format is cell-based. Here is the method:
Cell viability assessed by AnnexinV/DAPI staining.
(§1) Given the unique role of Complex II in directly connecting the TCA cycle to the ETC, the impact of selectively inhibiting either the SDH or SQR activities of Complex II on venetoclax sensitivity was tested. The venetoclax sensitization effects of TTFA (SQR inhibitor) or 3NPA (SDH inhibitor) were tested on eight venetoclax-resistant MM lines (FIG. 3A-3H). 3NPA is a structural analog of succinate, which binds irreversibly with SDH inhibiting FAD reduction and fumarate production while TTFA is a direct Qp site inhibitor. […] The efficacy of the TTFA-venetoclax cotreatment strategy was also tested in a colony-forming unit assay. MM lines (L363 and KMS11) were cultured in an agar matrix with single agents or the combination.
To further inquire whether Complex I inhibition could also sensitize MM cells to venetoclax, a Complex I inhibitor was tested ([…]).

Data set [2] relates to MM lines (L363 and KMS11). The experiment in a line: Colony-forming unit assay in agar matrix, TTFA-venetoclax cotreatment. The format is cell-based. Conditions: L363 and KMS11, venetoclax 0.1 μM. How it is done:
as §1

Data set [3] relates to non-MM cells contained within the aspirate. How it is done: Bone marrow aspirate samples from 50 MM patients were treated with three doses of venetoclax (0.01, 0.1 and 0.5 μM) or TTFA (100 μM), or the combination for 24 h and cell death was assessed by AnnexinV staining.
The efficacy of IACS-010759 in sensitizing was tested in […] patient samples to venetoclax.

The structures appear in SMILES notation.

Procedure for citrate synthase: Citrate synthase activity assay was measured in 0.3×10^6 cells harvested per sample and washed with PBS. Cells were resuspended in 10 mM Tris (pH 8.5) and 0.1% Triton X-100 assay buffer, containing 300 μM acetyl CoA and 100 μM 5,5′-dithiobis(2-nitrobenzoic acid) (DTNB=molar extinction coefficient 13.6 mM^−1 cm^−1). Reaction was started by the addition of 0.5 mM oxaloacetic acid and change in absorbance recorded at 412 nm wavelength every min for 10 min. SQR, SDH and CS activity measurements were performed with 100 μL sample containing 0.3×10^6 permeabilized cells.

On to `O=C(CC(=O)C(F)(F)F)c1cccs1` [TTFA, 4,4,4-trifluoro-1-(2-thienyl)-1,3-butanedione], for which, in the data set on MM cell lines, the “spare respiratory capacity (SRC)” value was “concordantly reduced”. In addition, the CS activity entry at citrate synthase is “remained unaffected”. Besides, the “BIM binding to BCL-2” value in the data set on BIM binding to BCL-2 is on record as “elevated BIM binding to BCL-2”. Further, the sensitization to venetoclax result is “does not sensitize these cells to venetoclax” in data set [1] (KMS21BM, TTFA at 100 μM) and “sensitizes myeloma cell line L363 to venetoclax more effectively than inhibition of SDHA with 3-NPA” in data set [1] (L363, TTFA 100 μM, 24 h). Further, the “sensitivity to venetoclax on cotreatment” value in data set [1] (eight venetoclax-resistant MM lines, 24 h) is reported as “increased sensitivity to venetoclax in six of the eight lines tested”. Besides, in data set [2], the “sensitization to venetoclax, cellular viability in colony-forming unit assay” value is on record as “sensitized MM lines to a lower dose of venetoclax”. The “viability of non-MM cells” value in data set [3] was “no to minimal impact on viability”.
